These molecules were tested on HCV 1b genotype (assay: HCV Replicon assay (HCV 16-377-neo replicon cells)). Details: Hepatitis C virus; HCV 1b genotype replicon cells; read-out: EC50 ranges against HCV 1b.
Type: cell-based
Protocol: An HCV Replion assay was utilized in the present disclosure, and was prepared, conducted and validated as described in commonly owned PCT/US2006/022197 and in O'Boyle et. al. Antimicrob Agents Chemother. 2005 Apr;49(4): 1346-53.
HCV 16-377-neo replicon cells were used to test the currently described compound series as well as cells resistant to compound A due to a Y2065H mutation in NS5A (described in application PCT/US2006/022197). The compounds tested were determined to have more than 10-fold less inhibitory activity on cells resistant to compound A than wild-type cells indicating a related mechanism of action between the two compound series. Thus, the compounds of the present disclosure can be effective to inhibit the function of the HCV NS5A protein and are understood to be as effective in combinations as previously described in application PCT/US2006/022197 and commonly owned WO/O4014852. Further, the compounds of the present disclosure can be effective against the HCV 1b genotype. It should also be understood that the compounds of the present disclosure can inhibit multiple genotypes of HCV. […] In one embodiment compounds of the present disclosure are active against the 1a, 1b, 2a, 2b, 3a, 4a, and 5a genotypes.

**Q.** For `CCN(CC)[C@@H](C(=O)N1CCC[C@H]1c1nc(-c2ccc(-c3ccc(-c4nc([C@@H]5CCCN5C(=O)[C@@H](c5ccccc5)N(CC)CC)[nH]c4C)cc3)cc2)c[nH]1)c1ccccc1` [Example E5a, (1R)-2-((2S)-2-(4-(4'-(2-((2S)-1-((2R)-2-(diethylamino)-2-phenylacetyl)-2-pyrrolidinyl)-1H-imidazol-4-yl)-4-biphenylyl)-5-methyl-1H-imidazol-2-yl)-1-pyrrolidinyl)-N,N-diethyl-2-oxo-1-phenylethanamine], which EC50 is on record?
**A.** 0.001 to 0.999 nM

**Q.** For `COC(=O)N[C@@H](C(=O)N1CC2(CC2)C[C@H]1c1nc(-c2ccc(-c3ccc(-c4c[nH]c([C@@H]5CC6(CC6)CN5C(=O)[C@H](NC(=O)OC)c5ccccc5)n4)cc3)cc2)c[nH]1)c1ccccc1` [Example M150, dimethyl (4,4'-biphenyldiylbis(1H-imidazole-4,2-diyl(6S)-5-azaspiro[2.4]heptane-6,5-diyl((1R)-2-oxo-1-phenyl-2,1-ethanediyl)))biscarbamate], which EC50 is on record?
**A.** 0.001 to 0.999 nM

**Q.** For `CC(C)[C@H](Nc1ncccn1)C(=O)N1[C@@H]2C[C@@H]2C[C@H]1c1ncc(-c2ccc(-c3ccc(-c4cnc([C@@H]5C[C@H]6C[C@H]6N5C(=O)[C@@H](Nc5ncccn5)C(C)C)[nH]4)cc3)cc2)[nH]1` [Example M144, N,N'-(4,4'-biphenyldiylbis(1H-imidazole-4,2-diyl(1R,3S,5R)-2-azabicyclo[3.1.0]hexane-3,2-diyl((2S)-3-methyl-1-oxo-1, -butanediyl)))di(2-pyrimidinamine)], which EC50 is on record?
**A.** 0.001 to 0.999 nM

**Q.** `COC(=O)N[C@H](C(=O)N1CCC[C@H]1c1nc(-c2ccc(-c3ccc(-c4[nH]c([C@@H]5CCCN5C(=O)[C@@H](NC(=O)OC)C(C)C)nc4CC4OCCCO4)cc3)cc2)c[nH]1)C(C)C` [Example J14, methyl ((1S)-1-(((2S)-2-(4-(1,3-dioxan-2-ylmethyl)-5-(4'-(2-((2S)-1-((2S)-2-((methoxycarbonyl)amino)-3-methylbutanoyl)-2-pyrrolidinyl)-1H-imidazol-4-yl)-4-biphenylyl)-1H-imidazol-2-yl)-1-pyrrolidinyl)carbonyl)-2-methylpropyl)carba mate] was tested. Which EC50 did it give?
**A.** 0.001 to 0.999 nM

**Q.** `CC(C)[C@@H](NC(=O)OC(C)(C)C)C(=O)N1[C@@H]2C[C@@H]2C[C@H]1c1nc(-c2ccc(-c3ccc(-c4c[nH]c([C@@H]5C[C@H]6C[C@H]6N5C(=O)[C@H](NC(=O)OC(C)(C)C)C(C)C)n4)cc3)cc2)c[nH]1` [Example M142, tert-butyl ((1R)-1-(((1R,3S,5R)-3-(4-(4'-(2-((1R,3S,5R)-2-((2R)-2-((tert-butoxycarbonyl)amino)-3-methylbutanoyl)-2-azabicyclo[3.1.0]hex-3-yl)-1H-imidazol-4-yl)-4-biphenylyl)-1H-imidazol-2-yl)-2-azabic yclo[3.1.0]hex-2-yl)carbonyl)-2-methylpropyl)carbamate] was tested. Which EC50 did it give?
**A.** 1 to 99 nM

**Q.** With `COC(=O)NC(C)(C)C(=O)N1[C@@H](C)CC[C@H]1c1ncc(-c2ccc(-c3ccc(-c4cnc([C@@H]5CC[C@H](C)N5C(=O)C(C)(C)NC(=O)OC)[nH]4)cc3)cc2)[nH]1` [Example M156, methyl (2-((2S,5S)-2-(4-(4'-(2-((2S,5S)-1-(2-((methoxycarbonyl)amino)-2-methylpropanoyl)-5-methyl-2-pyrrolidinyl)-1H-imidazol-4-yl)-4-biphenylyl)-1H-imidazol-2-yl)-5-methyl-1-pyrrolidinyl)-1,1-dimethy 1-2-oxoethyl)carbamate] as the molecule, how does the EC50 read?
**A.** 1 to 99 nM

**Q.** Which EC50 does the source give for `CCCc1[nH]c([C@@H]2CCCN2C(=O)[C@@H](NC(=O)OC)C(C)C)nc1-c1ccc(-c2ccc(-c3c[nH]c([C@@H]4CCCN4C(=O)[C@@H](NC(=O)OC)C(C)C)n3)cc2)cc1` [Example J14c.2, methyl ((1S)-1-(((2S)-2-(4-(4'-(2-((2S)-1-((2S)-2-((methoxycarbonyl)amino)-3-methylbutanoyl)-2-pyrrolidinyl)-1H-imidazol-4-yl)-4-biphenylyl)-5-propyl-1H-imidazol-2-yl)-1-pyrrolidinyl)carbonyl)-2-methylpropyl)carba mate] here?
**A.** 0.001 to 0.999 nM

**Q.** For `COC(=O)N[C@@H](C(=O)N1[C@@H]2C[C@@H]2C[C@H]1c1nc(-c2ccc(-c3ccc(-c4c[nH]c([C@@H]5C[C@H]6C[C@H]6N5C(=O)[C@H](NC(=O)OC)C(C)C)n4)cc3)cc2)c[nH]1)C(C)C` [Example M136, methyl ((1R)-1-(((1R,3S,5R)-3-(4-(4'-(2-((1R,3S,5R)-2-((2R)-2-((methoxycarbonyl)amino)-3-methylbutanoyl)-2-azabicyclo[3.1.0]hex-3-yl)-1H-imidazol-4-yl)-4-biphenylyl)-1H-imidazol-2-yl)-2-azabicyclo[3.1.0]hex-2-yl)carbonyl)-2-methylpropyl)carbamate], which EC50 is on record?
**A.** 1 to 99 nM

**Q.** `COC(=O)N[C@@H](C)C(=O)N1CCC[C@H]1c1nc(-c2ccc(-c3ccc(-c4[nH]c([C@@H]5CCCN5C(=O)[C@H](C)NC(=O)OC)nc4CO)cc3)cc2)c[nH]1` [Example J14f.1, methyl ((1S)-2-((2S)-2-(4-(4'-(4-(hydroxymethyl)-2-((2S)-1-(N-(methoxycarbonyl)-L-alanyl)-2-pyrrolidinyl)-1H-imidazol-5-yl)-4-biphenylyl)-1H-imidazol-2-yl)-1-pyrrolidinyl)-1-methyl-2-oxoethyl)carbamate] was tested. Which EC50 did it give?
**A.** 1 to 99 nM

**Q.** `CC(C)[C@H](N)C(=O)N1[C@@H]2C[C@@H]2C[C@H]1c1nc(-c2ccc(-c3ccc(-c4cnc([C@@H]5C[C@H]6C[C@H]6N5C(=O)[C@@H](N)C(C)C)[nH]4)cc3)cc2)c[nH]1` [Example M140a-i, (2S)-1-((1R,3S,5R)-3-(4-(4'-(2-((1R,3S,5R)-2-((2S)-2-amino-3-methylbutanoyl)-2-azabicyclo[3.1.0]hex-3-yl)-1H-imidazol-5-yl)-4-biphenylyl)-1H-imidazol-2-yl)-2-azabicyclo[3.1.0]hex-2-yl)-3-methyl-1-oxo-2-butanamine] was tested. Which EC50 did it give?
**A.** 1 to 99 nM

**Q.** `CC(C)[C@H](NC(=O)C1CC1)C(=O)N1[C@@H]2C[C@@H]2C[C@H]1c1ncc(-c2ccc(-c3ccc(-c4cnc([C@@H]5C[C@H]6C[C@H]6N5C(=O)[C@@H](NC(=O)C5CC5)C(C)C)[nH]4)cc3)cc2)[nH]1` [Example M141, N((1S)-1-(((1R,3S,SR)-3-(4-(4'-(2-((1R,3S,SR)-2-((2S)-2-((cyclopropylcarbonyl)amino)-3-methylbutanoyl)-2-azabicyclo[3.1.0]hex-3-yl)-1H imidazol-4-y/)-4-biphenyly/)-1H-imidazol-2-yl)-2-azabicyclo[3.1. 0]hex-2-yl)carbonyl)-2-methylpropyl)cyclopropanecarbamate] was tested. Which EC50 did it give?
**A.** 1 to 99 nM

**Q.** `COC(=O)NCC(=O)N1CC2(CC2)C[C@H]1c1nc(-c2ccc(-c3ccc(-c4c[nH]c([C@@H]5CC6(CC6)CN5C(=O)CNC(=O)OC)n4)cc3)cc2)c[nH]1` [Example M146, methyl (2-((6S)-6-(4-(4'-(2-((6S)-5-(((methoxycarbonyl)amino)acetyl)-5-azaspiro[2.4]hept-6-yl)-1H-imidazol-4-yl)-4-biphenylyl)-1H-imidazol-2-yl)-5-azaspiro[2.4]hept-5-yl)-2-oxoethyl)carbamate] was tested. Which EC50 did it give?
**A.** 0.001 to 0.999 nM

**Q.** `COC(=O)N[C@@H](C(=O)N1[C@@H](C)CC[C@H]1c1nc(-c2ccc(-c3ccc(-c4c[nH]c([C@@H]5CC[C@H](C)N5C(=O)[C@H](NC(=O)OC)c5ccccc5)n4)cc3)cc2)c[nH]1)c1ccccc1` [Example M153, dimethyl (4,4'-biphenyldiylbis(1H-imidazole-4,2-diyl((2S,5S)-5-methyl-2,1-pyrrolidinediyl)((1R)-2-oxo-1-phenyl-2,1-ethanediyl)))biscarbamate] was tested. Which EC50 did it give?
**A.** 0.001 to 0.999 nM

**Q.** How did the EC50 turn out when `Cc1nc([C@@H]2CCCN2C(=O)[C@@H](c2ccccc2)N2CCCCC2)[nH]c1-c1ccc(-c2ccc(-c3[nH]c([C@@H]4CCCN4C(=O)[C@@H](c4ccccc4)N4CCCCC4)nc3C)cc2)cc1` [Example E5i, 1,1'-(4,4'-biphenyldiylbis((4-methyl-1H-imidazole-5,2-diyl)(2S)-2,1-pyrrolidinediyl((1R )-2-oxo-1-phenyl-2,1-ethanediyl)))dipiper idine] was run?
**A.** 0.001 to 0.999 nM

**Q.** With `COC(=O)N[C@@H](C)C(=O)N1[C@@H](C)CC[C@H]1c1nc(-c2ccc(-c3ccc(-c4c[nH]c([C@@H]5CC[C@H](C)N5C(=O)[C@H](C)NC(=O)OC)n4)cc3)cc2)c[nH]1` [Example M157, methyl ((1S)-2-((2S,5S)-2-(4-(4'-(2-((2S,5S)-1-(N-(methoxycarbonyl)-L-alanyl)-5-methyl-2-pyrrolidinyl)-1H-imidazol-4-yl)-4-biphenylyl)-1H-imidazol-2-yl)-5-methyl-1-pyrrolidinyl)-1-methyl-2-oxoethyl)carbamate] as the molecule, how does the EC50 read?
**A.** 0.001 to 0.999 nM

**Q.** For `COC(=O)N[C@H](C(=O)N1CCC[C@H]1c1nc(-c2ccc(-c3ccc(-c4[nH]c([C@@H]5CCCN5C(=O)[C@@H](NC(=O)OC)[C@@H](C)OC)nc4C)cc3)cc2)c[nH]1)[C@@H](C)OC` [Example E5f, methyl ((1S,2R)-2-methoxy-1-(((2S)-2-(4-(4'-(2-((2S)-1-(N-(methoxycarbonyl)-O-methyl-L-threonyl)-2-pyrrolidinyl)-4-methyl-1H-imidazol-5-yl)-4-biphenylyl)-1H-imidazol-2-yl)-1-pyrrolidinyl)carbonyl)propyl)carbamate], which EC50 is on record?
**A.** 0.001 to 0.999 nM

**Q.** How did the EC50 turn out when `CC(C)[C@@H](O)C(=O)N1[C@@H](C)CC[C@H]1c1nc(-c2ccc(-c3ccc(-c4c[nH]c([C@@H]5CC[C@H](C)N5C(=O)[C@H](O)C(C)C)n4)cc3)cc2)c[nH]1` [Example M160, (2R,2'R)-1,1'-(4,4'-biphenyldiylbis(1H-imidazole-4,2-diyl((2S,5S)-5-methyl-2,1-pyrrolidinediyl)))bis(3-methyl-1-oxo-2-butanol)] was run?
**A.** 1 to 99 nM
